Measurements from US10221152B2 (priority 2013, dated 2019).
Counter-ions that a name gives are not always drawn.

Columns and labels:
[1] = system: Tamiflu-resistant H1N1 viral strain rWSN^H274Y; type: cell-based, Influenza A virus
[2] = system: H1N1 T.R. (Tamiflu-resistant variant of H1N1 viral strain); type: cell-based, Influenza A virus

Structure (SMILES) | concentration required to inhibit rWSN^H274Y (immunofluorescence staining) [1] [µM] | Minimal Inhibitory Concentration (MIC), H1N1 T.R. [2] [µg/mL]
NC(=O)c1ncn([C@@H]2O[C@H](CO)[C@@H](O)[C@H]2O)n1 [Ribavirin, reference compound] | 100 | –
COc1c(C)c2c(c(O)c1C/C=C(\C)CCC(=O)OCCN1CCOCC1)C(=O)OC2 [MPM, 2-morpholinoethyl(E)-6-(1,3-dihydro-4-hydroxy-6-methoxy-7-methyl-3-oxo-5-isobenzofuranyl)-4-methyl-4-hexenoate] | – | 0.39
COc1c(C)c2c(c(O)c1C/C=C(\C)CCC(=O)OCCN1CCOCC1)C(=O)OC2 [MPM-N, mycophenolate mofetil hydrochloride] | 5 | –
